The source of these data is patent US10813932B2, “1-pyrazolyl-3-(4-((2-anilinopyrimidin-4-yl) oxy) napththalen-1-yl) ureas as P38 MAP knase inhibitors” (Respivert Limited, priority 2011, dated 2020).

The subject of one test is Balb/c mice. The experiment in a line: LPS-induced neutrophil accumulation in mice. The class given is in vivo. As for the experimental part:
Non-fasted Balb/c mice were dosed by the intra tracheal route with either vehicle, or the test substance at the indicated times (within the range 2-8 hr) before stimulation of the inflammatory response by application of an LPS challenge. At T=0, mice were placed into an exposure chamber and exposed to LPS (7.0 mL, 0.5 mg/mL solution in PBS) for 30 min). After a further 8 hr the animals were anesthetized, their tracheas cannulated and BALF extracted by infusing and then withdrawing from their lungs 1.0 mL of PBS via the tracheal catheter. Total and differential white cell counts in the BALF samples were measured using a Neubaur haemocytometer. Cytospin smears of the BALF samples were prepared by centrifugation at 200 rpm for 5 min at RT and stained using a DiffQuik stain system (Dade Behring). Cells were counted using oil immersion microscopy. Data for neutrophil numbers in BAL are shown as mean±S.E.M. (standard error of the mean). The percentage inhibition of neutrophil accumulation was calculated for each treatment relative to vehicle treatment.

A further test has as its system A/J mice. The experiment in a line: Cigarette smoke model. The class given is in vivo. As for the experimental part:
A/J mice (males, 5 weeks old) were exposed to cigarette smoke (4% cigarette smoke, diluted with air) for 30 min/day for 11 days using a Tobacco Smoke Inhalation Experiment System for small animals (Model SIS-CS; Sibata Scientific Technology, Tokyo, Japan). Test substances were administered intra-nasally (35 μL of solution in 50% DMSO/PBS) once daily for 3 days after the final cigarette smoke exposure. At 12 hr after the last dosing, each of the animals was anesthetized, the trachea cannulated and bronchoalveolar lavage fluid (BALF) was collected. The numbers of alveolar macrophages and neutrophils were determined by FACS analysis (EPICS® ALTRA II, Beckman Coulter, Inc., Fullerton, Calif., USA) using anti-mouse MOMA2 antibody (macrophage) or anti-mouse 7/4 antibody (neutrophil). BALF was centrifuged and the supernatant was collected. The level of keratinocyte chemoattractant (KC; CXCL1) in BALF was quantitated using a Quentikine® mouse KC ELISA kit (R&D systems, Inc., Minneapolis, Minn., USA).

With `Cc1ccc(-n2nc(C(C)(C)C)cc2NC(=O)Nc2ccc(Oc3ccnc(Nc4ccccc4)n3)c3ccccc23)cc1` [Example 1, 1-(3-(tert-Butyl)-1-(p-tolyl)-1H-pyrazol-5-yl)-3-(4-(2-(phenylamino)pyrimidin-4-yloxy)naphthalen-1-yl)urea], the LPS-induced neutrophil accumulation result in the test with Balb/c mice is reported as “dose dependent inhibition”. In the test on A/J mice, the “cigarette smoke induced CXCL1 (KC) production in BALF” value is given as “inhibited”, the “macrophage accumulation in BALF induced by cigarette smoke” value is listed as “dose-dependent inhibition” and the “neutrophil accumulation in BALF induced by cigarette smoke” value is given as “dose-dependent inhibition”.
